Among the data in patent US20250230155A1 (Vanderbilt University, priority 2021, published 2025) are Emax and EC50 values, retold here.

Read-outs that look alike come from different tables or passages of the source.

In this assay the target is T1, human mAChR M4 (Homo sapiens, UniProt P08173).
T1 construct: expressed in transfected cells
T1 sequence (P08173 1-479): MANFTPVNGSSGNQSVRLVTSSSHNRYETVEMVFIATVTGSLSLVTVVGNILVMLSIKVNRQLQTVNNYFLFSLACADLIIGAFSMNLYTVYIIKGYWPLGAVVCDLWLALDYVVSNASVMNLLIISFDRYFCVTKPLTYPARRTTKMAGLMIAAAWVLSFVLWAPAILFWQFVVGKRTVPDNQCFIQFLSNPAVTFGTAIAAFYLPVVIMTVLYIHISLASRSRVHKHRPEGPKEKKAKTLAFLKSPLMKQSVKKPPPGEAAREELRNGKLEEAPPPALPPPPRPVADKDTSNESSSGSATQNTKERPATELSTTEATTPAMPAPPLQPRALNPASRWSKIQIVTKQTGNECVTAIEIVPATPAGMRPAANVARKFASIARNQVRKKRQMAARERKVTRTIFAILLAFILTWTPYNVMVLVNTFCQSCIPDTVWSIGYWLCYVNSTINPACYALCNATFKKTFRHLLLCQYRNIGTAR
Briefly: mAChR M4 cell-based functional assay (calcium mobilization, CHO-K1 hM4-Gqi5 cells). As to conditions: for Emax at 30 µM: CHO-K1, % ACh maximum at 30 μM, human M4; for EC50: increase in the EC20 acetylcholine response, CHO-K1 hM4-Gqi5 cells. Put shortly: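 Fluorescent calcium read-out (Fluo-4 AM, FDSS, 1 Hz) in hM4-Gqi5 CHO-K1 cells, 11-point 1:3 compound series. Agonism scored on compound addition, PAM activity as increase of the 144 s EC20 acetylcholine response, antagonism as decrease of the 230 s EC80 response; four-parameter logistic fits give EC50 and Emax.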
(A change in cytosolic calcium serves as a functional read-out for many receptors and channels.)

The mark [1] stands for this setting: positive allosteric modulator activity, read-out: Human M4 EC50.

`Cc1cc(C(=O)NCc2ccccc2)cnc1N1CCc2ncccc2C1` [compound 70, N-benzyl-6-(7,8-dihydro-5H-1,6-naphthyridin-6-yl)-5-methyl-pyridine-3-carboxamide]: the Emax at 30 µM amounted to 80%. Also, the EC50 under setting [1] is 2930 nM.
In the case of `Cc1cc(C(=O)NCC(C)(C)O)cnc1N1CCc2ncc(-c3cn(C)nc3C)cc2C1` [Example 461, 6-(3-(1,3-dimethyl-1H-pyrazol-4-yl)-7,8-dihydro-1,6-naphthyridin-6(5H)-yl)-N-(2-hydroxy-2-methylpropyl)-5-methylnicotinamide], the Emax at 30 µM is 76%. In addition, the EC50 under setting [1] was found to be 4100 nM.
Consider `Cc1cc(Nc2cnc3c(c2)CN(c2ncc(C#N)cc2C)CC3)n(CCC(C)C)n1` [Example 313, 6-(3-((1-isopentyl-3-methyl-1/- pyrazol-5-yl)amino)-7,8-dihydro-1,6-naphthyridin-6(5H)-yl)-5-methylnicotinonitrile], for which the Emax at 30 µM was 42%. Moreover, under setting [1], the EC50 is 605 nM.
Consider `Cc1cc(C(=O)NCc2ncc(Cl)cn2)cnc1N1CCc2ncccc2C1` [compound 146, N-[(5-chloropyrimidin-2-yl)methyl]-6-(7,8-dihydro-5H-1,6-naphthyridin-6-yl)-5-methyl-pyridine-3-carboxamide], for which the Emax at 30 µM was determined as 56%. Further, the EC50 under setting [1] was no less than 10000 nM.
For the compound `Cc1cc(C#N)nnc1N1CCc2ncc(N3CCN(C)C(=O)C3)cc2C1` [Example 410, 5-methyl-6-(3-(4-methyl-3-oxopiperazin-1-yl)-7,8-dihydro-1,6-naphthyridin-6(5H)-yl)pyridazine-3-carbonitrile], the maximal response (Emax) at 30 µM amounted to 89%. Also, the EC50 under setting [1] came to 3800 nM.
The matching figures for `Cc1c(C#N)nnc(N2CCc3ncc(C(F)(F)F)cc3C2)c1C` [Example 303, 4,5-dimethyl-6-(3-(trifluoromethyl)-7,8-dihydro-1,6-naphthyridin-6(5H)-yl)pyridazine-3-carbonitrile]: 48% and 1600 nM.
Turning to `Cc1cc(C(=O)NCc2cncs2)nnc1N1CCc2ncc(N3CCCn4nccc43)cc2C1` [Example 489, 6-(3-(6,7-dihydropyrazolo[1,5-a]pyrimidin-4(5H)-yl)-7,8-dihydro-1,6-naphthyridin-6(5H)-yl)-5-methyl-N-(thiazol-5-ylmethyl)pyridazine-3-carboxamide], the Emax at 30 µM is 95%. Under setting [1], the EC50 turned out to be 5 nM.
For the compound `Cc1c(C#N)nnc(N2CCc3ncc(-c4ccc(N5CC6CC5CO6)nc4)cc3C2)c1C` (stereo not drawn) [Example 333, 6-(3-(6-(2-oxa-5-azabicyclo[2.2.1]heptan-5-yl)pyridin-3-yl)-7,8-dihydro-1,6-naphthyridin-6(5H)-yl)-4,5-dimethylpyridazine-3-carbonitrile], the Emax at 30 µM turned out to be 72%. Under setting [1], the EC50 stood at 817 nM.
The matching figures for `Cc1c(Cl)nc(C(F)(F)F)nc1N1CCc2ncc(Nc3ccnn3C)cc2C1` [compound 247, 6-(6-chloro-5-methyl-2-(trifluoromethyl)pyrimidin-4-yl)-N-(1-methyl-1H-pyrazol-5-yl)-5,6,7,8-tetrahydro-1,6-naphthyridin-3-amine]: 91% and 764 nM.
The matching figures for `[2H]C1([2H])Cc2ncc(Nc3ccncc3C)cc2C([2H])([2H])N1c1nnc(C#N)cc1C` [Example 607, 5-methyl-6-(3-((3-methylpyridin-4-yl)amino)-7,8-dihydro-1,6-naphthyridin-6(5H)-yl-5,5,7,7-d4)pyridazine-3-carbonitrile]: 70% and 906 nM.
Consider `Cc1cc(C#N)nnc1N1CCc2ncc(Oc3ccccc3F)cc2C1` [Example 396, 6-(3-(2-fluorophenoxy)-7,8-dihydro-1,6-naphthyridin-6(5H)-yl)-5-methylpyridazine-3-carbonitrile], for which the Emax at 30 µM was determined as 87%. Moreover, the EC50 under setting [1] amounted to 65 nM.
`Cc1cc(C(=O)NCc2ccc3c(c2)CCS3(=O)=O)cnc1N1CCc2ncccc2C1` [compound 164, 6-(7,8-dihydro-5H-1,6-naphthyridin-6-yl)-N-[(1,1-dioxo-2,3-dihydrobenzothiophen-5-yl)methyl]-5-methyl-pyridine-3-carboxamide]: the Emax at 30 µM stood at 54%. Also, the concentration for a half-maximal effect (EC50) under setting [1] is no less than 10000 nM.
For `Cc1cc(C#N)nnc1N1CCc2ncc(Nc3cccnc3F)cc2C1` [Example 399, 6-(3-((2-fluoropyridin-3-yl)amino)-7,8-dihydro-1,6-naphthyridin-6(5H)-yl)-5-methylpyridazine-3-carbonitrile], the Emax at 30 µM is 73%. The EC50 under setting [1] turned out to be 219 nM.
The matching figures for `COc1cccc2cc(CNC(=O)c3cnc(N4CCc5ncccc5C4)c(C)c3)oc12` [compound 162, 6-(7,8-dihydro-5H-1,6-naphthyridin-6-yl)-N-[(7-methoxybenzofuran-2-yl)methyl]-5-methyl-pyridine-3-carboxamide]: 65% and 3350 nM.
For `Cc1c(Cl)nc(C(F)(F)F)nc1N1CCc2ncc(Nc3cccnc3F)cc2C1` [compound 249, 6-(6-chloro-5-methyl-2-(trifluoromethyl)pyrimidin-4-yl)-N-(2-fluoropyridin-3-yl)-5,6,7,8-tetrahydro-1,6-naphthyridin-3-amine], the Emax at 30 µM is 82%. Further, the EC50 under setting [1] was found to be 1440 nM.
As to `Cc1c(C#N)nnc(N2CCc3ncc(-c4ccc5ncn(C)c5c4)cc3C2)c1C` [Example 17], the Emax at 30 µM was found to be 33%. Besides, under setting [1], the EC50 worked out at 560 nM.
`Cc1nn(C)cc1-c1cnc2c(c1)CN(c1ncc(C(N)=O)cc1C(F)(F)F)CC2` [Example 487, 6-(3-(1,3-dimethyl-1H-pyrazol-4-yl)-7,8-dihydro-1,6-naphthyridin-6(5H)-yl)-5-(trifluoromethyl)nicotinamide]: the maximal effect (Emax) at 30 µM amounted to 38%. The EC50 under setting [1] was determined as 2880 nM.
For the compound `Cc1c(C#N)nnc(N2CCc3ncc(Nc4ncccc4F)cc3C2)c1C` [compound 80, 6-[3-[(3-fluoro-2-pyridyl)amino]-7,8-dihydro-5H-1,6-naphthyridin-6-yl]-4,5-dimethyl-pyridazine-3-carbonitrile], the Emax at 30 µM was found to be 72%. Moreover, the EC50 under setting [1] worked out at 300 nM.
As for `Cc1cc(C#N)cnc1N1CCc2ncc(Nc3ccccn3)cc2C1` [Example 6], the Emax at 30 µM was found to be 77%. Under setting [1], the EC50 turned out to be 223 nM.
The matching figures for `Cc1cnc2c(c1)CN(c1ncc(C(=O)Nc3ccncc3)cc1C)CC2` [Example 438, 5-methyl-6-(3-methyl-7,8-dihydro-1,6-naphthyridin-6(5H)-yl)-N-(pyridin-4-yl)nicotinamide]: 88% and 517 nM.
With `Cc1cc(C#N)cnc1N1CCc2ncc(OCCCOc3ccccc3)cc2C1` [Example 432, 5-methyl-6-(3-(3-phenoxypropoxy)-7,8-dihydro-1,6-naphthyridin-6(5H)-yl)nicotinonitrile], the Emax at 30 µM turned out to be 48%. Also, the EC50 under setting [1] was determined as 6800 nM.
On to `Cc1cc(C(=O)NCc2ccc(Cl)nc2)cnc1N1CCc2ncc(-c3cn(C)nc3C)cc2C1` [Example 481, N-((6-chloropyridin-3-yl)methyl)-6-(3-(1,3-dimethyl-1H-pyrazol-4-yl)-7,8-dihydro-1,6-naphthyridin-6(5H)-yl)-5-methylnicotinamide], for which the maximal response (Emax) at 30 µM came out at 58%. Further, under setting [1], the EC50 came out at 1060 nM.
For the compound `Cc1cnc2c(c1)CN(c1ncc(C#N)cc1C)CC2` [compound 179, 5-methyl-6-(3-methyl-7,8-dihydro-5H-1,6-naphthyridin-6-yl)pyridine-3-carbonitrile], for the setting “CHO-K1”, the Emax was 98%. Moreover, the EC50 (Human M4 EC50, positive allosteric modulator activity) was 100 nM.
For `Cc1cc(C(=O)NCc2nccs2)cnc1N1CCc2ncc(-c3ccn(C)n3)cc2C1` [compound 171, 5-methyl-6-[3-(1-methylpyrazol-3-yl)-7,8-dihydro-5H-1,6-naphthyridin-6-yl]-N-(thiazol-2-ylmethyl)pyridine-3-carboxamide], the Emax at 30 µM was 87%. Moreover, the EC50 under setting [1] was 265 nM.
On to `Cc1c(C#N)nnc(N2CCc3ncc(Nc4nc(Cl)ncc4F)cc3C2)c1C` [compound 81, 6-[3-[(2-chloro-5-fluoro-pyrimidin-4-yl)amino]-7,8-dihydro-5H-1,6-naphthyridin-6-yl]-4,5-dimethyl-pyridazine-3-carbonitrile], for which the Emax at 30 µM was 78%. Besides, the EC50 under setting [1] stood at 539 nM.
The matching figures for `Cc1nc(Cl)c(C)c(N2CCc3ncc(N4CCCn5nccc54)cc3C2)n1` [compound 243, 6-(6-chloro-2,5-dimethylpyrimidin-4-yl)-3-(6,7-dihydropyrazolo[1,5-a]pyrimidin-4(5H)-yl)-5,6,7,8-tetrahydro-1,6-naphthyridine]: 102% and 25 nM.
The matching figures for `Cc1cc(C(=O)N2CCc3cccnc3C2)nnc1N1CCc2ncc(C(F)(F)F)cc2C1` [Example 500, (5,8-dihydro-1,7-naphthyridin-7(6H)-yl)(5-methyl-6-(3-(trifluoromethyl)-7,8-dihydro-1,6-naphthyridin-6(5H)-yl)pyridazin-3-yl)methanone]: 92% and 1790 nM.

Broadly, the Emax is the maximal effect, on the per cent scale that the assay sets. As usually defined, the EC50 is the concentration at which the effect is half-maximal.
